Measurements from patent US7998987B2, “Inhibitors of c-Met and uses thereof” (Vertex Pharmaceuticals Incorporated, priority 2005, dated 2011).

What follows are compounds tested against c-Met (Homo sapiens, UniProt P08581) (assay: Ki determination for the inhibition of c-Met kinase activity (standard coupled enzyme system)). Conditions: coupled enzyme system, 200 μM ATP, 80 nM c-Met, 30° C.; number printed instead of class symbol; read-out: c-Met Ki.
Assay type: biochemical
Method in brief: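 Continuous coupled-enzyme (PK/LDH, NADH depletion) assay with 80 nM c-Met, 200 μM ATP and 10 μM polyGluTyr in 100 mM HEPES pH 7.5, 10 mM MgCl2, 1.5% DMSO at 30 °C.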

Chain of c-Met (P08581 25-1390): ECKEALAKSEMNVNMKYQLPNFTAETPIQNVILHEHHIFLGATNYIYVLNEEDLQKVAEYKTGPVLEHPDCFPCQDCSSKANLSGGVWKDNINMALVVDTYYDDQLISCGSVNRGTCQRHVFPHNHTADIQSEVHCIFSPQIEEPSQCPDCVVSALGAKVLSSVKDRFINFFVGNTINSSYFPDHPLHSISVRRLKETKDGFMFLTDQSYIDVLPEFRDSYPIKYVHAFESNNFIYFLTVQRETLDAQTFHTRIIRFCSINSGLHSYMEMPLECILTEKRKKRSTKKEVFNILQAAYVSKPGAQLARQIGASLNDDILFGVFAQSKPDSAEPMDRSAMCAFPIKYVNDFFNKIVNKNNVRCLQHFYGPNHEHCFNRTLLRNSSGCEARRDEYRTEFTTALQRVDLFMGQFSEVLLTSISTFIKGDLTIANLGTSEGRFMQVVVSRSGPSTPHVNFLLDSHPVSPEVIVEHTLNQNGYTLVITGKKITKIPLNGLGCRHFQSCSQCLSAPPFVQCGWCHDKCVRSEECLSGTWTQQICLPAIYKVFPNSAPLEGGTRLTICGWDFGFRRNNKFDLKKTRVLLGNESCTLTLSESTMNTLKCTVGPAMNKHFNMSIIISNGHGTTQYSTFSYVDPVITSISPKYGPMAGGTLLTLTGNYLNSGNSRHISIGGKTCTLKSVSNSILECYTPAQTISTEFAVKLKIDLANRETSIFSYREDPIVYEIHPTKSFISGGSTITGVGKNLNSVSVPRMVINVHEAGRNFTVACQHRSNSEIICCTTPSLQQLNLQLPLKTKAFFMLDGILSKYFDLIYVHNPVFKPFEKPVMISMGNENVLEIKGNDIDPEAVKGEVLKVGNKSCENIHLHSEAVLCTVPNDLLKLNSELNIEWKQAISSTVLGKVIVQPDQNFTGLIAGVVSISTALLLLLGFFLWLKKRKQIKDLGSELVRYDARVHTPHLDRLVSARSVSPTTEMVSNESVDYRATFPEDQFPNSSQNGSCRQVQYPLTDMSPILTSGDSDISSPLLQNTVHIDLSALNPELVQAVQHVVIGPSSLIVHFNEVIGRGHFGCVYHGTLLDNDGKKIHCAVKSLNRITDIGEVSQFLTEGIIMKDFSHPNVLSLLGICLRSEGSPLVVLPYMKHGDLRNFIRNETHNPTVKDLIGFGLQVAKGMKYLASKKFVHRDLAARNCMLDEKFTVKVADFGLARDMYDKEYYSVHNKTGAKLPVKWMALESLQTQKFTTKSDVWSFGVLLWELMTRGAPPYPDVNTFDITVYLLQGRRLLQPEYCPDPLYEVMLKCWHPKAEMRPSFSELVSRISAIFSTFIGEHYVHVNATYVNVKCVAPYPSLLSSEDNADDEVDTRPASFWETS

Row | SMILES | Ki
1 | COc1ccc(C2(c3nnc4ccc(Nc5cccc(Cl)c5)nn34)CC2)cc1 [Compound 356] | 0.1 µM

Same assay, conditions: coupled enzyme system, 200 μM ATP, 80 nM c-Met, 30° C.; read-out: c-Met Ki

Row | SMILES | Ki
2 | Clc1cccc(Nc2ccc3nnc(CNc4ncccn4)n3n2)c1 [Compound 414] | > 2 µM
3 | COC[C@@H](C)Nc1ccc2nnc(Cc3ccc(O)cc3)n2n1 [Compound 304] | 0.1 to 2 µM
4 | Clc1cccc(Nc2ccc3nnc(CNc4ccc5c(c4)OCO5)n3n2)c1 [Compound 347] | 0.1 to 2 µM
5 | Cc1cc(C)cc(Nc2ccc3nnc(Cc4ccc(O)cc4)n3n2)c1 [Compound 295] | < 0.1 µM
6 | Clc1cccc(Nc2ccc3nnc(CNc4cccc5[nH]ccc45)n3n2)c1 [Compound 464] | > 2 µM
7 | COc1ccc(Cl)cc1Nc1ccc2nnc(Cc3ccc(O)cc3)n2n1 [Compound 360] | < 0.1 µM
8 | Clc1cccc(Nc2ccc3nnc(CNc4cccc(Oc5ccccc5)c4)n3n2)c1 [Compound 334] | > 2 µM
9 | COCCC(=O)N[C@@H]1CCCC[C@H]1Nc1ccc2nnc([C@@H](C)c3ccc(O)cc3)n2n1 [Compound 451] | > 2 µM
10 | Oc1ccc(Cc2nnc3ccc(Nc4cccc(C(F)(F)F)c4)nn23)cc1F [Compound 292] | < 0.1 µM
11 | Clc1cccc(Nc2ccc3nnc(CNc4ccc5cn[nH]c5c4)n3n2)c1 [Compound 487] | 0.1 to 2 µM
12 | Clc1cccc(Nc2ccc3nnc(CCc4c[nH]cn4)n3n2)c1 [Compound 395] | > 2 µM
13 | C[C@@H](c1ccc(O)cc1)c1nnc2ccc(Nc3ccc(Cl)nc3)nn12 [Compound 514] | 0.1 to 2 µM
14 | CC1=Nn2c(Cc3ccc(O)cc3)nnc2SC1 [Compound 542] | 0.1 to 2 µM
15 | NC(=O)c1ccccc1OCc1nnc2ccc(Nc3cccc(Cl)c3)nn12 [Compound 392] | > 2 µM
16 | Oc1ccc(Cc2nnc3n2N=C(c2ccc4c(c2)OCO4)CS3)cc1 [Compound 540] | < 0.1 µM
17 | Oc1ccc(Cc2nnc3n2N=C(c2c[nH]c4ncccc24)CS3)cc1 [Compound 524] | 0.1 to 2 µM
18 | c1ccc(C2=Nn3c(Cc4ccc5c(c4)OCO5)nnc3SC2)cc1 [Compound 523] | 0.1 to 2 µM
19 | Nc1cc(C(F)(F)F)ccc1OCc1nnc2ccc(Nc3cccc(Cl)c3)nn12 [Compound 429] | > 2 µM

Same assay, conditions: coupled enzyme system, 200 μM ATP, 10 μM polyGluTyr, 80 nM c-Met, 30° C.; read-out: c-Met Ki

Row | SMILES | Ki
20 | Cc1cccc(Nc2ccc3nnc(Cc4ccncc4)n3n2)c1 [Compound 231] | > 2 µM
21 | c1ccc(-c2ccc3nnc(Cc4ccc5c(c4)OCO5)n3n2)cc1 [Compound 207] | 0.1 to 2 µM
22 | O=c1[nH]c2ccc(Nc3ccc4nnc(Cc5ccc(O)cc5)n4n3)cc2[nH]1 [Compound 216] | < 0.1 µM
23 | CC(C)Oc1cccc(Nc2nn3c([C@@H](C)c4ccc(O)cc4)nnc3s2)c1 [Compound 173] | < 0.1 µM
24 | Clc1ccccc1Nc1nn2c(Cc3ccc4c(c3)OCO4)nnc2s1 [Compound 68] | 0.1 to 2 µM
25 | Oc1ccc(Cc2nnc3ccc(Nc4ccc(Cl)cc4)nn23)cc1 [Compound 186] | 0.1 to 2 µM
26 | Oc1ccc(Cc2nnc3sc(Nc4cccc(F)c4Cl)nn23)cc1Cl [Compound 103] | 0.1 to 2 µM
27 | Fc1cccc(Nc2nn3c(Cc4ccc5c(c4)OCO5)nnc3s2)c1 [Compound 107] | < 0.1 µM
28 | CCc1cccc(Nc2ccc3nnc(Cc4ccncc4)n3n2)c1 [Compound 222] | > 2 µM
29 | Oc1ccc(Cc2nnc3ccc(NCC4CCCCC4)nn23)cc1 [Compound 195] | 0.1 to 2 µM
30 | CN(C)c1ccc(Nc2nn3c(Cc4ccc5c(c4)OCO5)nnc3s2)cc1 [Compound 85] | 0.1 to 2 µM
31 | Oc1ccc(Cc2nnc3ccc(-c4ccccc4)nn23)cc1 [Compound 176] | 0.1 to 2 µM
32 | COc1cccc(Nc2ccc3nnc(Cc4ccc(O)cc4)n3n2)c1 [Compound 184] | < 0.1 µM
33 | CNC(=O)c1cccc(Nc2ccc3nnc(Cc4ccc5c(c4)OCO5)n3n2)c1 [Compound 236] | 0.1 to 2 µM
34 | COc1ccc([C@H](C)c2nnc3sc(Nc4cccc(F)c4)nn23)cc1 [Compound 158] | 0.1 to 2 µM
35 | FC(F)(F)c1cccc(Nc2ccc3nnc(Cc4ccncc4)n3n2)c1 [Compound 227] | 0.1 to 2 µM
36 | Oc1ccc(Cc2nnc3ccc(N4CCCC4c4ccc(F)cc4)nn23)cc1 (stereo not drawn) [Compound 202] | > 2 µM
